A word on the EC50: it is the concentration needed to bring the measured effect to its halfway point. Usually CC50 stands for the concentration giving 50% cytotoxicity. The low end stands for harm at low concentration, the high end for better tolerance by the cells.

Consider 10 compounds from US20240374598A1, “INHIBITORS OF HUMAN IMMUNODEFICIENCY VIRUS REPLICATION” (ViiV HEALTHCARE UK (NO.5) LIMITED, priority 2018, published 2024).

The test system of data set [1] is recombinant NL4-3 virus (nef section replaced with Renilla luciferase gene) in MT-2 cells. Description: HIV cell culture assay (antiviral activity, luciferase readout). Type of data set: cell-based. As to conditions: NL43, MT-2 cells infected for 4-5 days with recombinant NL4-3 Renilla luciferase virus. Put shortly: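 MT-2 cells were infected for 4–5 days with NL4-3 reporter virus carrying Renilla luciferase in place of part of nef, in the presence of serially diluted compound. Luciferase activity, read with a live-cell substrate, gave percent inhibition; EC50 derived from the median effect equation.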

The nature of data set [2]: Compound cytotoxicity, XTT-based colorimetric assay. Type of data set: cell-based. As to conditions: human; uninfected MT2 cells, day 4, XTT assay. Here is the method: Compound cytotoxicity and the corresponding CC50 values were determined using the same protocol as described in the antiviral assay except that uninfected cells were used. Cytotoxicity was assessed on day 4 in uninfected MT2 cells by using a XTT (2,3-bis[2-Methoxy-4-nitro-5-sulfophenyl]-2H-tetrazolium-5-carboxyanilide inner salt)-based colorimetric assay (Sigma-Aldrich, St Louis, Mo).
Background: Tetrazolium assays rely on reduction of a dye to a coloured formazan, in cell work by metabolically active cells.

With `CC(C)[C@H](C)Oc1ccc2c(=O)n(-c3ccc(Cl)c4c(NS(C)(=O)=O)nn(C)c34)c([C@H](Cc3cc(F)cc(F)c3)NC(=O)Cn3nc(C(F)F)c4c3C(F)(F)[C@@H]3C[C@H]43)nc2c1` [Example 13, N—((S)-1-(3-(4-chloro-1-methyl-3-(methylsulfonamido)-1H-indazol-7-yl)-7-(((S)-3-methylbutan-2-yl)oxy)-4-oxo-3,4-dihydroquinazolin-2-yl)-2-(3,5-difluorophenyl)ethyl)-2-((3bS,4aR)-3-(difluoromethyl)-5,5-difluoro-3b,4,4a,5-tetrahydro-1H-cyclopropa[3,4]cyclopenta[1,2-c]pyrazol-1-yl)acetamide], the EC50 in data set [1] is 0.239 nM. The compound also displayed a CC50 at 4 day in data set [2] greater than 1000 nM.
On the same counts, the results for `Cn1nc(NS(C)(=O)=O)c2cccc(-n3c([C@H](Cc4cc(F)cc(F)c4)NC(=O)Cn4nc(C(F)F)c5c4C(F)(F)[C@@H]4C[C@H]54)nc4cc(C5CCCC5)ccc4c3=O)c21` [Example 33, N—((S)-1-(7-cyclopentyl-3-(1-methyl-3-(methylsulfonamido)-1H-indazol-7-yl)-4-oxo-3,4-dihydroquinazolin-2-yl)-2-(3,5-difluorophenyl)ethyl)-2-((3bS,4aR)-3-(difluoromethyl)-5,5-difluoro-3b,4,4a,5-tetrahydro-1H-cyclopropa[3,4]cyclopenta[1,2-c]pyrazol-1-yl)acetamide] are 1.26 nM and greater than 1000 nM.
On the same counts, the results for `COc1ccc2c(=O)n(-c3ccc(Cl)c4c(NS(C)(=O)=O)nn(C)c34)c([C@H](Cc3cc(F)cc(F)c3)NC(=O)Cn3ccc(C(C)C)n3)nc2n1` [Example 35, (S)—N-(1-(3-(4-chloro-1-methyl-3-(methylsulfonamido)-1H-indazol-7-yl)-7-methoxy-4-oxo-3,4-dihydropyrido[2,3-d]pyrimidin-2-yl)-2-(3,5-difluorophenyl)ethyl)-2-(3-isopropyl-1H-pyrazol-1-yl)acetamide] are 0.235 nM and greater than 1000 nM.
On the same counts, the results for `CC(C)Oc1ccc2c(=O)n(-c3ccc(Cl)c4c(NS(C)(=O)=O)nn(C)c34)c([C@H](Cc3cc(F)cc(F)c3)NC(=O)Cn3nc(C(F)F)c4c3C(F)(F)[C@@H]3C[C@H]43)nc2c1` [Example 10, N—((S)-1-(3-(4-chloro-1-methyl-3-(methylsulfonamido)-1H-indazol-7-yl)-7-isopropoxy-4-oxo-3,4-dihydroquinazolin-2-yl)-2-(3,5-difluorophenyl)ethyl)-2-((3bS,4aR)-3-(difluoromethyl)-5,5-difluoro-3b,4,4a,5-tetrahydro-1H-cyclopropa[3,4]cyclopenta[1,2-c]pyrazol-1-yl)acetamide] are 0.107 nM and greater than 1000 nM.
For `COc1ccc2c(=O)n(-c3ccc(Cl)c4c(NS(C)(=O)=O)nn(C)c34)c([C@H](Cc3cc(F)cc(F)c3)NC(=O)Cn3ccc(C4CC4)n3)nc2c1` [Example 6, (S)—N-(1-(3-(4-chloro-1-methyl-3-(methylsulfonamido)-1H-indazol-7-yl)-7-methoxy-4-oxo-3,4-dihydroquinazolin-2-yl)-2-(3,5-difluorophenyl)ethyl)-2-(3-cyclopropyl-1H-pyrazol-1-yl)acetamide], the EC50 in data set [1] came out at 0.347 nM. For the same compound, the CC50 at 4 day in data set [2] is greater than 1000 nM.
As to `Cn1nc(NS(C)(=O)=O)c2c(Cl)ccc(-n3c([C@H](Cc4cc(F)cc(F)c4)NC(=O)Cn4nc(C(F)F)c5c4C(F)(F)[C@@H]4C[C@H]54)nc4cc(O)ccc4c3=O)c21` [Example 4, N—((S)-1-(3-(4-chloro-1-methyl-3-(methylsulfonamido)-1H-indazol-7-yl)-7-hydroxy-4-oxo-3,4-dihydroquinazolin-2-yl)-2-(3,5-difluorophenyl)ethyl)-2-((3bS,4aR)-3-(difluoromethyl)-5,5-difluoro-3b,4,4a,5-tetrahydro-1H-cyclopropa[3,4]cyclopenta[1,2-c]pyrazol-1-yl)acetamide], in data set [1], the EC50 is 0.273 nM. In addition, in data set [2], the CC50 at 4 day was greater than 1000 nM.
The matching figures for `COc1ccc2c(=O)n(-c3ccc(Cl)c4c(NS(C)(=O)=O)nn(C)c34)c([C@H](Cc3cc(F)cc(F)c3)NC(=O)Cn3ccc(C(C)C)n3)nc2c1` [Example 5, (S)—N-(1-(3-(4-chloro-1-methyl-3-(methylsulfonamido)-1H-indazol-7-yl)-7-methoxy-4-oxo-3,4-dihydroquinazolin-2-yl)-2-(3,5-difluorophenyl)ethyl)-2-(3-isopropyl-1H-pyrazol-1-yl)acetamide]: 0.758 nM and greater than 1000 nM.
For `CS(=O)(=O)Nc1nn(CC(F)F)c2c(-n3c([C@H](Cc4cc(F)cc(F)c4)NC(=O)Cn4nc(C(F)F)c5c4C(F)(F)[C@@H]4C[C@H]54)nc4cc(CCC(F)(F)F)ccc4c3=O)ccc(Cl)c12` [Example 23, N—((S)-1-(3-(4-chloro-1-(2,2-difluoroethyl)-3-(methylsulfonamido)-1H-indazol-7-yl)-4-oxo-7-(3,3,3-trifluoropropyl)-3,4-dihydroquinazolin-2-yl)-2-(3,5-difluorophenyl)ethyl)-2-((3bS,4aR)-3-(difluoromethyl)-5,5-difluoro-3b,4,4a,5-tetrahydro-1H-cyclopropa[3,4]cyclopenta[1,2-c]pyrazol-1-yl)acetamide], the EC50 in data set [1] was 0.094 nM. In data set [2], the CC50 at 4 day is greater than 1000 nM.
On the same counts, the results for `COc1cnc2c(=O)n(-c3ccc(Cl)c4c(NS(C)(=O)=O)nn(C)c34)c([C@H](Cc3cc(F)cc(F)c3)NC(=O)Cn3nc(C(F)F)c4c3C(F)(F)C3CC43)nc2c1` (stereo in doubt) [Example 39, N—((S)-1-(3-(4-chloro-1-methyl-3-(methylsulfonamido)-1H-indazol-7-yl)-7-methoxy-4-oxo-3,4-dihydropyrido[3,2-d]pyrimidin-2-yl)-2-(3,5-difluorophenyl)ethyl)-2-((3bS,4aR)-3-(difluoromethyl)-5,5-difluoro-3b,4,4a,5-tetrahydro-1H-cyclopropa[3,4]cyclopenta[1,2-c]pyrazol-1-yl)acetamide] are 0.016 nM and greater than 1000 nM.
In the case of `CC(F)(F)c1ccc2c(=O)n(-c3ccc(Cl)c4c(NS(C)(=O)=O)nn(CC(F)F)c34)c([C@H](Cc3cc(F)cc(F)c3)NC(=O)Cn3nc(C(F)F)c4c3C(F)(F)[C@@H]3C[C@H]43)nc2c1` [Example 17, N—((S)-1-(3-(4-chloro-1-(2,2-difluoroethyl)-3-(methylsulfonamido)-1H-indazol-7-yl)-7-(1,1-difluoroethyl)-4-oxo-3,4-dihydroquinazolin-2-yl)-2-(3,5-difluorophenyl)ethyl)-2-((3bS,4aR)-3-(difluoromethyl)-5,5-difluoro-3b,4,4a,5-tetrahydro-1H-cyclopropa[3,4]cyclopenta[1,2-c]pyrazol-1-yl)acetamide], in data set [1], the EC50 stood at 0.083 nM. In data set [2], this compound displayed a 50% cytotoxic concentration (CC50) at 4 day greater than 1000 nM.
